Where a name gives a salt, the structure may show the parent alone.
Tested on: mPer2Luc MEF
Experiment: PER2::LUC luminescence relative to vehicle control (fold of vehicle); higher = higher PER2::LUC reporter signal
Protocol: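 Secondary dose-response validation of 72 circadian-modulating compounds in mPer2Luc MEFs, threefold dilution series of six doses from 10 uM down to 0.04 uM. PER2::LUC luminescence read at 24 h and 30 h after treatment, normalised to vehicle (DMSO) control.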

[1] = time after treatment: 24-hour, concentration: 0.04μM
[2] = time after treatment: 24-hour, concentration: 0.37μM
[3] = time after treatment: 24-hour, concentration: 3.33μM
[4] = time after treatment: 24-hour, concentration: 10μM
[5] = time after treatment: 30-hour, concentration: 0.04μM
[6] = time after treatment: 30-hour, concentration: 0.37μM
[7] = time after treatment: 30-hour, concentration: 3.33μM
[8] = time after treatment: 30-hour, concentration: 10μM

Compound | PER2::LUC luminescence [1] | PER2::LUC luminescence [2] | PER2::LUC luminescence [3] | PER2::LUC luminescence [4] | PER2::LUC luminescence [5] | PER2::LUC luminescence [6] | PER2::LUC luminescence [7] | PER2::LUC luminescence [8]
Cc1ccc(-n2nc(C(C)(C)C)cc2NC(=O)Nc2ccc(OCCN3CCOCC3)c3ccccc23)cc1 [BIRB 796 (Doramapimod)] | 0.968 | 0.966 | 0.963 | 1.09 | 0.892 | 0.941 | 0.924 | 1.26
CC(C)c1cnn2c(NCc3ccccc3)cc(NCCCCCCN)nc12 [BS-181] | 1.05 | 0.946 | 0.807 | 0.33 | 0.972 | 0.943 | 0.934 | 0.422
C=CC(=O)Nc1cccc(Nc2nc(Nc3ccc(Oc4ccnc(C(=O)NC)c4)cc3)ncc2F)c1 [CNX-774] | 0.953 | 0.958 | 0.839 | 0.44 | 1.01 | 0.966 | 0.857 | 0.586
O=C(O)CCCCC(CCSCc1ccccc1)SCc1ccccc1 (stereo not drawn) [CPI-613] | 1 | 0.991 | 1.05 | 1.09 | 1.02 | 0.999 | 1.04 | 1.03
O=C(O)c1ccc2c(c1)nc(Nc1cccc(Cl)c1)c1ccncc12 [CX-4945] | 1.13 | 1.06 | 1.05 | 0.842 | 1.11 | 1.05 | 1.08 | 1.06
Cc1ccc([C@@H]2O[C@H](CO)[C@@H](O)[C@H](O)[C@H]2O)cc1Cc1ccc(-c2ccc(F)cc2)s1 [Canagliflozin] | 1.01 | 0.998 | 0.985 | 1.09 | 0.996 | 0.996 | 0.964 | 0.974
COc1cc2c(Oc3ccc4[nH]c(C)cc4c3F)ncnc2cc1OCCCN1CCCC1 [Cediranib] | 0.767 | 0.585 | 0.35 | 0.033 | 0.662 | 0.496 | 0.306 | 0.019
O=C(c1ccc(F)c(F)c1Nc1ccc(I)cc1F)N1CC(O)([C@@H]2CCCCN2)C1 [Cobimetinib] | 0.419 | 0.495 | 0.11 | 0.015 | 0.459 | 0.437 | 0.168 | 0.007
CC1=C2C[C@H]3[C@@H](CC=C4C[C@@H](O)CC[C@@]43C)[C@@H]2CC[C@]12O[C@@H]1C[C@H](C)CN[C@H]1[C@H]2C [Cyclopamine] | 0.834 | 0.74 | 0.421 | 0.178 | 0.991 | 0.999 | 0.766 | 0.229
CNC(=O)c1cc(Oc2ccc(NC(=O)Nc3cc(C(C)(C)C)nn3-c3ccc4ncccc4c3)c(F)c2)ccn1 [DCC-2036] | 1.27 | 1.3 | 1.28 | 1.1 | 1.72 | 1.81 | 1.74 | 1.27
O=c1c(-c2ccc(O)cc2)coc2cc(O)ccc12 [Daidzein] | 1.01 | 0.97 | 1.1 | 1.3 | 0.995 | 1.04 | 1.11 | 1.59
Cc1nc(Nc2ncc(C(=O)Nc3c(C)cccc3Cl)s2)cc(N2CCN(CCO)CC2)n1 [Dasatinib] | 0.438 | 0.416 | 0.269 | 0.074 | 0.368 | 0.366 | 0.244 | 0.084
CN1CCN(c2ccc3nc(-c4c(N)c5c(F)cccc5[nH]c4=O)[nH]c3c2)CC1 [Dovitinib (TKI-258)] | 0.917 | 0.895 | 0.651 | 0.477 | 0.945 | 0.895 | 0.609 | 0.29
O=C(/C=C/c1cccnc1)NCCCCC1CCN(C(=O)c2ccccc2)CC1 [FK866] | 0.987 | 1.02 | 0.955 | 0.89 | 0.67 | 0.643 | 0.595 | 0.49
C[C@@H](O[C@H]1OCCN(Cc2nn(P(=O)(O)O)c(=O)[nH]2)[C@H]1c1ccc(F)cc1)c1cc(C(F)(F)F)cc(C(F)(F)F)c1 [Fosaprepitant dimeglumine] | 1.06 | 1.02 | 0.627 | 0.456 | 0.978 | 0.951 | 0.891 | 0.849
NCC(=O)N1C[C@H](NC(=O)c2ccccc2)C[C@H]1C(=O)O [GAP-134 (Hydrochloride)] | 0.994 | 0.988 | 1.05 | 1.04 | 1.04 | 1.04 | 1.06 | 1.02
CC(C)NC[C@@H](C(=O)N1CCN(c2ncnc3c2[C@H](C)C[C@H]3O)CC1)c1ccc(Cl)cc1 [GDC-0068] | 0.898 | 0.743 | 0.674 | 0.481 | 0.917 | 0.776 | 0.619 | 0.434
Cc1ccc(NC(=O)Nc2cc(C(F)(F)F)ccc2F)cc1Nc1ccc2c(c1)NC(=O)/C2=C\c1ccc[nH]1 [GNF-5837] | 1.07 | 1.06 | 1.15 | 0.539 | 1.05 | 1.05 | 1.2 | 0.751
CC(C)c1onc(-c2c(Cl)cccc2Cl)c1COc1ccc(/C=C/c2cccc(C(=O)O)c2)c(Cl)c1 [GW4064] | 1.04 | 1.08 | 1.24 | 1.88 | 1.08 | 1.1 | 1.32 | 2.19
COc1cc(OC)cc(C(=O)Nc2ccc(Cl)c(-c3nc4ccc(N(C)C)cc4[nH]3)c2)c1 [HhAntag] | 1.03 | 1.07 | 1.03 | 1.12 | 0.988 | 1.04 | 1.12 | 1.44
O=C(Cc1ccc(-c2ccc(OCCN3CCOCC3)cc2)cn1)NCc1ccccc1 [KX2-391] | 0.85 | 0.597 | 0.429 | 0.365 | 0.786 | 0.627 | 0.497 | 0.478
Cc1cc2sc(NC(=O)Cc3ccccc3)nc2cc1Cl [LH-846] | 1.17 | 1.3 | 1.46 | 1.28 | 1.37 | 1.53 | 1.75 | 1.26
COc1cc(C(=O)N2CCC(N3CCN(C)CC3)CC2)ccc1Nc1ncc2c(n1)N(C)c1ccccc1C(=O)N2C [LRRK2-IN-1] | 0.815 | 0.751 | 0.337 | 0.1 | 0.817 | 0.716 | 0.351 | 0.098
Cn1cc(/C=C/C(=O)c2cccc(F)c2)cc1/C=C/C(=O)NO [MC1568] | 0.933 | 0.956 | 0.979 | 1.34 | 0.907 | 0.894 | 0.843 | 1.04
Cc1cccc(C#Cc2ccccc2)n1 [MPEP Hydrochloride] | 1.11 | 1.19 | 1.33 | 1.39 | 1.22 | 1.41 | 1.57 | 1.73
O=C(NC1CC1)c1cc(-c2cccs2)on1 [N-cyclopropyl-5-(thiophen-2-yl)-1,2-oxazole-3-carboxamide] | 1.3 | 1.33 | 1.66 | 1.76 | 1.37 | 1.44 | 1.79 | 1.99

— the supplement of paper PMC9334596
